“And” between values parts separate entries of the source, which are not always exact repeats. Identical values can stand only once.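 Each compound was tested at five concentrations against cells in 96-well plates for 48 hours. GI50 = concentration required for 50% inhibition of growth. The concentration for full growth arrest is given as TGI.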
Key:
Test in all cases: growth of human tumour cells (NCI), 48 h
[1] = system: SN12C renal
[2] = system: OVCAR-3 ovarian
[3] = system: ACHN renal
[4] = system: SF-539 CNS
[5] = system: NCI-H460 lung
[6] = system: 786-0 renal
[7] = system: UACC-62 melanoma
[8] = system: SNB-19 CNS
[9] = system: DU-145 prostate
[10] = system: TK-10 renal

| Structure (SMILES) | TGI [1] | TGI [2] | TGI [3] | TGI [4] | TGI [5] | TGI [6] | TGI [7] | TGI [8] | TGI [9] | TGI [10] | GI50 [1] | GI50 [2] | GI50 [3] | GI50 [4] | GI50 [5] | GI50 [6] | GI50 [8] | GI50 [9] | GI50 [7] | GI50 [10] |
| --- | --- | --- | --- | --- | --- | --- | --- | --- | --- | --- | --- | --- | --- | --- | --- | --- | --- | --- | --- | --- |
| CN(C)CC1CCCCCC(Br)C1=O (centres undefined) | 32.2 µM | 21.6 µM | 19.6 µM | 31.8 µM | 49.6 µM | 8.62 µM | 44 µM | > 100 µM | 25 µM | 17.7 µM |  |  |  |  |  |  |  |  |  |  |
| COc1ccc(-c2nc(-c3ccccn3)c(-c3ccccn3)n2CC(C)C)cc1OC1CCCC1 | > 165 µM | 114 µM | > 165 µM | 99.7 µM | 99.7 µM | > 165 µM |  | > 165 µM | > 165 µM |  | 24.5 µM | 30.3 µM | 6.92 µM | 33.8 µM | 32.1 µM | 48.7 µM | 30.2 µM | 23.3 µM |  |  |
| CCSc1ccc([C@@H]2[C@@H](N)C(=O)N2c2cc(OC)c(OC)c(OC)c2)cc1 | > 100 µM | 2.08 µM | > 100 µM |  | > 100 µM | > 100 µM | > 100 µM | > 100 µM | > 100 µM | > 100 µM | 0.524 µM | 0.0338 µM | 0.071 µM |  | 0.0488 µM | 0.08 µM | 0.0715 µM | 0.188 µM | 0.0451 µM | 30.6 µM |
| Nc1nc(-c2ccc(Cl)cc2)cc(-c2ccc(Cl)cc2)c1-c1nc2ccccc2o1 | 26.1 µM | 35.5 µM | 33.2 µM | 35.7 µM | 39.6 µM | 36.4 µM | 34.2 µM | 41.4 µM | 36.6 µM | 41.9 µM | 12.4 µM | 18.6 µM | 17.4 µM | 19.9 µM | 16.8 µM | 17.9 µM | 19.6 µM | 17.2 µM | 18.9 µM | 20 µM |
| O=C(O)c1cn(C2CC2)c2cc(N3CCNCC3)c(F)cc2c1=O | > 100 µM | > 100 µM | > 100 µM |  | > 100 µM | > 100 µM | > 100 µM |  | > 100 µM | > 100 µM | > 100 µM | > 100 µM | > 100 µM |  | > 100 µM | > 100 µM |  | > 100 µM | > 100 µM | > 100 µM |
| COc1ccc(C2=N[C@@H](c3ccc(Cl)cc3)[C@@H](c3ccc(Cl)cc3)N2C(=O)N2CCNC(=O)C2)c(OC(C)C)c1 | 34 µM and 29.9 µM and 28.7 µM | 27.2 µM and 26 µM and 26.8 µM | 29.4 µM and 15.1 µM and 16.1 µM | 32 µM and 32.9 µM and 35.1 µM | 29.9 µM and 16.3 µM and 14.8 µM | 29 µM and 32.6 µM and 34 µM | 25.3 µM and 19.2 µM and 16.6 µM | 26.1 µM and 30.1 µM and 28.2 µM | 28.7 µM and 29.3 µM and 30.3 µM | 29.9 µM and 27.7 µM and 28 µM | 15.6 µM and 14.9 µM and 14.1 µM | 14 µM and 13.1 µM and 13.7 µM | 14.6 µM and 3.61 µM and 3.8 µM | 16.5 µM and 17.2 µM and 17.8 µM | 14.8 µM and 3.04 µM and 2.17 µM | 14.9 µM and 16.6 µM and 17.3 µM | 12.5 µM and 15.5 µM and 14.6 µM | 15.2 µM and 15.8 µM and 16.6 µM | 11.3 µM and 2.76 µM and 1.38 µM | 16.1 µM and 14.6 µM and 14.8 µM |
| CN1CCN(c2ccc3nc(-c4[nH]ncc4Nc4ncnc5c4OCCCN5)[nH]c3c2)CC1 | 0.12 µM | 0.0422 µM | 0.105 µM | 0.0214 µM | 0.0804 µM | 0.0944 µM | 0.0529 µM | 0.172 µM | 0.482 µM | 0.0576 µM | < 0.01 µM | < 0.01 µM | 0.0139 µM | < 0.01 µM | 0.0208 µM | < 0.0119 µM | 0.0106 µM | < 0.0118 µM | 0.0103 µM | 0.0166 µM |
| O=C(c1ccco1)c1nc2cc(C(F)(F)F)ccc2[n+]([O-])c1C(F)(F)F | > 100 µM | > 100 µM | > 100 µM | > 100 µM | > 100 µM | > 100 µM | > 100 µM | > 100 µM | > 100 µM | > 100 µM | 65.1 µM | 30.5 µM | 47.1 µM | 81.8 µM | 61 µM | 83.6 µM | 48.3 µM | 61.7 µM | 45.9 µM | 50.8 µM |
| CC[C@H]1CN(C)[C@H]2Cc3c([nH]c4ccccc34)C(=O)C[C@H]1C2C(=O)OC (some centres undefined) | > 100 µM | > 100 µM | > 100 µM | > 100 µM | > 100 µM | > 100 µM | > 100 µM | > 100 µM | > 100 µM | > 100 µM |  |  |  |  |  |  |  |  |  |  |
| COc1ccc(-c2nnc(SCC(=O)Nc3ccc(C(=O)/C=C/c4cc(OC)c(OC)c(OC)c4)cc3)n2-c2ccccc2)cc1OC | > 10 µM | > 10 µM | > 10 µM | > 10 µM | > 10 µM | > 10 µM | > 10 µM | > 10 µM | > 10 µM | > 10 µM | > 10 µM | 3.18 µM | 5.69 µM | 3.2 µM | 8.54 µM | 3.53 µM | > 10 µM | 3.86 µM | 6.4 µM | > 10 µM |
| Cc1ccc2nc3c(n2c1)C(=O)C(=O)c1ccccc1-3 | 0.303 µM | 1.07 µM | 0.88 µM | 0.326 µM | 0.718 µM | 1.15 µM | 0.324 µM | 1.58 µM | 1.12 µM | 2.9 µM | 0.153 µM | 0.285 µM | 0.269 µM | 0.164 µM | 0.173 µM | 0.527 µM | 0.565 µM | 0.288 µM | 0.152 µM | 1.28 µM |
| CCOc1cc2c(=O)oc3c(OC)ccc4ccc(c1OC)c2c43 | > 100 µM | > 100 µM | > 100 µM | > 100 µM | > 100 µM | > 100 µM | > 100 µM | > 100 µM | > 100 µM | > 100 µM |  |  |  |  |  |  |  |  |  |  |
| c1ccc2cc(C[n+]3ccn(Cc4ccc5ccccc5n4)c3)ccc2c1 | 6.15 µM and 11 µM | 1.98 µM and 13.2 µM | 18.5 µM | 11.4 µM and 13.8 µM | 10.8 µM and 14.6 µM | 13 µM and 24.8 µM | 1.5 µM and 5.94 µM | 11 µM and 13.2 µM | 12.4 µM and 22.4 µM | 6.47 µM and 23.8 µM | 0.347 µM and 2.82 µM | 0.316 µM and 2.15 µM | 5.54 µM | 0.421 µM and 2.72 µM | 0.456 µM and 3.74 µM | 2.73 µM and 10.6 µM | 0.338 µM and 3.05 µM |  | 0.374 µM and 1.91 µM | 1.71 µM and 10.4 µM |
| CCCCCCCCNC(C)C(O)c1ccc(SC(C)C)cc1 (centres undefined) | 3.13 µM | 3.46 µM | 3.3 µM | 3.4 µM | 3.56 µM | 3.34 µM | 2.95 µM | 3.28 µM | 3.27 µM | 3.13 µM | 1.57 µM | 1.98 µM | 1.87 µM | 1.9 µM | 1.85 µM | 1.73 µM | 1.64 µM | 1.86 µM | 1.53 µM | 1.7 µM |

— PubChem BioAssay (NCI)
